This is an account of results in patent US10323027B2, “2,3-dihydro-4H-1,3-benzoxazin-4-one derivatives as modulators of cholinergic muscarinic M1 receptor” (Takeda Pharmaceutical Company Limited, priority 2015, dated 2019).

Structures can show the parent of a compound that is named as a salt.

For this assay, the target named is T1, human M1 receptor (hCHRM1) (Homo sapiens, UniProt P11229).
T1 construct: expressed in transfected cells
T1 sequence (P11229 1-460): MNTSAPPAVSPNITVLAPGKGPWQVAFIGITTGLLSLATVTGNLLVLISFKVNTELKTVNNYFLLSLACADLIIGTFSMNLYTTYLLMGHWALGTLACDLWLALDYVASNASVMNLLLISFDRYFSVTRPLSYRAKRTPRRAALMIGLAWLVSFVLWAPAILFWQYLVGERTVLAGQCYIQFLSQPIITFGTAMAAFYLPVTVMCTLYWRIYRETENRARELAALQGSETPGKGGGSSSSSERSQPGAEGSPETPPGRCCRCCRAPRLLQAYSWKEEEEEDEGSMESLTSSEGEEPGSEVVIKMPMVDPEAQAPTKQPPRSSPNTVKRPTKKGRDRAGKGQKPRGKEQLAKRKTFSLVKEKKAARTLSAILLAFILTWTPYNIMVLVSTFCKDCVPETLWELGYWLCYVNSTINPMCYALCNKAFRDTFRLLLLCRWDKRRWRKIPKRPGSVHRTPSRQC
The assay can be described thus: Measurement of M1 receptor positive allosteric modulator (M1PAM) activity, Ca2+ fluorescence by FLIPRtetra (Experimental Example 1). In kind it is cell-based. The note with it: for activity (%) at 10 μM: 10 μM test compound, 100% = acetylcholine 1 μM, 0% = DMSO; for EC50: inflection point of concentration-dependent curve, in presence of acetylcholine at EC20 (0.8-1.0 nM), CHO-K1 cells expressing hCHRM1, read-out: IP value. On the procedure:
Measurement of M1 Receptor Positive Allosteric Modulator (M1PAM) Activity
The activity of a test compound in the presence of acetylcholine at EC20 concentration (final concentration 0.8-1.0 nM), which affords an action corresponding to about 20% of the maximum activity, was measured as PAM activity. The method is as follows. CHO-K1 cells stably expressing a human M1 receptor (hCHRM1) were plated on a 384-well black clear bottom plate (BD Falcon) at 5,000 cells/well, and cultured in an incubator at 37° C., 5% CO2 for 1 day. The medium in the cell plate was removed, and a dye solution (prepared by adding Recording medium (DOJINDO LABORATORIES) to a final concentration of 1×concentration, Fluo-4 AM (DOJINDO LABORATORIES) to a final concentration of 2.5 μg/mL, Pluronic F127 (DOJINDO LABORATORIES) to a final concentration of 0.08%, and probenecid (DOJINDO LABORATORIES) to a final concentration of 1.25 mM to assay buffer (HBSS (Invitrogen), 20 mM HEPES (Invitrogen), 0.1% BSA (Wako Pure Chemical Industries, Ltd.))) was added at 30 μL/well. The cells were left standing in the incubator at 37° C., 5% CO2 for 30 min, and further left standing at room temperature for 30 min. A test compound prepared by diluting with assay buffer containing 3.2-4.0 nM acetylcholine was added at 10 μL/well, and the fluorescence was measured by FLIPRtetra (Molecular Devices) for 1 min every 1 second. With the definition that the amount of change in the fluorescence on addition of acetylcholine (final concentration 1 μM) is 100% and that on addition of DMSO instead of a test compound is 0%, the activity (%) of the test compound was calculated, and the inflection point in the concentration-dependent curve of the test compound was calculated as IP values.

In the case of `Cc1cc2c(cc1Cc1ccc(-n3cccn3)nc1)C(=O)N([C@H]1CCCC[C@@H]1O)CO2` (relative stereo) [Example 36, 3-(trans-2-hydroxycyclohexyl)-7-methyl-6-((6-(1H-pyrazol-1-yl)pyridin-3-yl)methyl)-2,3-dihydro-4H-1,3-benzoxazin-4-one], the “activity (%) at 10 μM” value was found to be 108% and the EC50 was determined as 12 nM.
In the same order, the values of `Cc1ccc(Cc2cc3c(c4ccccc24)OCN([C@H]2COCC[C@@H]2O)C3=O)cn1` (single isomer, unassigned) [Example 3, 1,5-anhydro-2,4-dideoxy-2-(6-((6-methylpyridin-3-yl)methyl)-4-oxo-2H-naphtho[2,1-e][1,3]oxazin-3(4H)-yl)-threo-pentitol monohydrochloride (optical isomer)] are 103% and 2.5 nM.
Take `Cc1cc2c(cc1Cc1ccc(C#N)cc1)C(=O)N([C@H]1CCC[C@@H]1O)CO2` [Example 67, 4-((3-((1S,2S)-2-hydroxycyclopentyl)-7-methyl-4-oxo-3,4-dihydro-2H-1,3-benzoxazin-6-yl)methyl)benzonitrile]: the “activity (%) at 10 μM” value was found to be 98% and the EC50 was 46 nM.
Taken in the same sequence, the figures for `Cc1ccc(Cc2cc3c(c4ccccc24)OCN(CC2CCCO2)C3=O)cn1` (stereo not drawn) [Example 58, 6-((6-methylpyridin-3-yl)methyl)-3-(tetrahydrofuran-2-ylmethyl)-2,3-dihydro-4H-naphtho[2,1-e][1,3]oxazin-4-one] were 94% and 16 nM.
Take `Cc1ccc(Cc2cc3c(c(F)c2C)OCN([C@H]2CCC[C@@H]2O)C3=O)cn1` [Example 20, 8-fluoro-3-((1S,2S)-2-hydroxycyclopentyl)-7-methyl-6-((6-methylpyridin-3-yl)methyl)-2,3-dihydro-4H-1,3-benzoxazin-4-one]: the “activity (%) at 10 μM” value is 85% and the EC50 worked out at 24 nM.
In the same order, the values of `Cc1c(Cc2ccc(Cl)nc2)cc2c(c1F)OCN([C@H]1CCCC[C@@H]1O)C2=O` [Example 54, 6-((6-chloropyridin-3-yl)methyl)-8-fluoro-3-((1S,2S)-2-hydroxycyclohexyl)-7-methyl-2,3-dihydro-4H-1,3-benzoxazin-4-one] are 116% and 11 nM.
Consider `Cc1ccc(Cc2cc3c(c(C)c2C)OCN([C@H]2COCC[C@@H]2O)C3=O)cn1` (single isomer, unassigned) [Example 7, 1,5-anhydro-2,4-dideoxy-2-(7,8-dimethyl-6-((6-methylpyridin-3-yl)methyl)-4-oxo-2H-1,3-benzoxazin-3(4H)-yl)-threo-pentitol monohydrochloride (optical isomer)], for which the “activity (%) at 10 μM” value amounted to 108% and the EC50 is 7.9 nM.
`O=C1c2cc(CN3CCC(F)(F)CC3)c3ccccc3c2OCN1[C@H]1CCC[C@@H]1O` [Example 21, 6-((4,4-difluoropiperidin-1-yl)methyl)-3-((1S,2S)-2-hydroxycyclopentyl)-2,3-dihydro-4H-naphtho[2,1-e][1,3]oxazin-4-one]: the “activity (%) at 10 μM” value is listed as 95% and the EC50 worked out at 16 nM.
Taken in the same sequence, the figures for `Cc1ccc(Cc2cc3c(c(C)c2C)OCN([C@H]2COCC[C@@H]2O)C3=O)cn1` [Example 137, 1,5-anhydro-2,4-dideoxy-2-(7,8-dimethyl-6-((6-methylpyridin-3-yl)methyl)-4-oxo-2H-1,3-benzoxazin-3(4H)-yl)-L-threo-pentitol] were 104% and 14 nM.
As to `Cc1ccc(Cc2cc3c(c4ccccc24)OCN(CC2CCCO2)C3=O)cn1` (stereo not drawn) [Example 68, 6-((6-methylpyridin-3-yl)methyl)-3-(tetrahydrofuran-2-ylmethyl)-2,3-dihydro-4H-naphtho[2,1-e][1,3]oxazin-4-one], the “activity (%) at 10 μM” value worked out at 90% and the EC50 amounted to 48 nM.
Turning to `O=C1c2cc(CN3CCCC(F)(F)C3)c3ccccc3c2OCN1[C@H]1CCC[C@@H]1O` [Example 72, 6-((3,3-difluoropiperidin-yl)methyl)-3-((1S,2S)-2-hydroxycyclopentyl)-2,3-dihydro-4H-naphtho[2,1-e][1,3]oxazin-4-one], the “activity (%) at 10 μM” value is on record as 100% and the EC50 was 57 nM.
For `Cn1cc(-c2ccc(Cc3ccc4c(c3)C(=O)N([C@H]3CCCC[C@@H]3O)CO4)cn2)cn1` (relative stereo) [Example 63, 3-(trans-2-hydroxycyclohexyl)-6-((6-(1-methyl-1H-pyrazol-4-yl)pyridin-3-yl)methyl)-2,3-dihydro-4H-1,3-benzoxazin-4-one], the “activity (%) at 10 μM” value came out at 99% and the EC50 is 32 nM.
In the case of `Cc1ccc(Cc2cc3c(cc2C)OCN([C@H]2CCC[C@@H]2O)C3=O)cn1` [Example 64, 3-((1S,2S)-2-hydroxycyclopentyl)-7-methyl-6-((6-methylpyridin-3-yl)methyl)-2,3-dihydro-4H-1,3-benzoxazin-4-one], the “activity (%) at 10 μM” value was 99% and the EC50 was determined as 34 nM.
For the molecule `Cc1c(Cc2ccc(-n3cccn3)cc2)cc2c(c1F)OCN([C@H]1CCC[C@@H]1O)C2=O` [Example 5, 8-fluoro-3-((1S,2S)-2-hydroxycyclopentyl)-7-methyl-6-(4-(1H-pyrazol-1-yl)benzyl)-2,3-dihydro-4H-1,3-benzoxazin-4-one], the “activity (%) at 10 μM” value amounted to 104% and the EC50 was 8.5 nM.
Turning to `O=C1c2cc(CN3CCSCC3)c3ccccc3c2OCN1[C@H]1CCC[C@@H]1O` [Example 57, 3-((1S,2S)-2-hydroxycyclopentyl)-6-(thiomorpholin-4-ylmethyl)-2,3-dihydro-4H-naphtho[2,1-e][1,3]oxazin-4-one], the “activity (%) at 10 μM” value came to 106% and the EC50 worked out at 16 nM.
Taken in the same sequence, the figures for `Cc1ccc(Cc2cc3c(c(Cl)c2C)OCN([C@H]2COCC[C@@H]2O)C3=O)cn1` [Example 6, 1,5-anhydro-2-(8-chloro-7-methyl-6-((6-methylpyridin-3-yl)methyl)-4-oxo-2H-1,3-benzoxazin-3(4H)-yl)-2,4-dideoxy-L-threo-pentitol] were 102% and 7 nM.
As for `Cc1c(Cc2ccc(-n3cccn3)cc2)cc2c(c1F)OCN([C@H]1COCC[C@@H]1O)C2=O` [Example 1, 8-fluoro-3-((3S,4S)-4-hydroxytetrahydro-2H-pyran-3-yl)-7-methyl-6-(4-(1H-pyrazol-1-yl)benzyl)-2,3-dihydro-4H-1,3-benzoxazin-4-one], the “activity (%) at 10 μM” value is listed as 96% and the EC50 came to 1.8 nM.
Taken in the same sequence, the figures for `Cc1cc2c(cc1Cc1ccc(-n3cccn3)cc1)C(=O)N([C@H]1CCCC[C@@H]1O)CO2` (relative stereo) [Example 52, 3-(trans-2-hydroxycyclohexyl)-7-methyl-6-(4-(1H-pyrazol-1-yl)benzyl)-2,3-dihydro-4H-1,3-benzoxazin-4-one] were 101% and 11 nM.
With `O=C1c2cc(CN3CC[S+]([O-])CC3)c3ccccc3c2OCN1[C@H]1CCC[C@@H]1O` [Example 60, 3-((1S,2S)-2-hydroxycyclopentyl)-6-((1-oxidothiomorpholin-4-yl)methyl)-2,3-dihydro-4H-naphtho[2,1-e][1,3]oxazin-4-one], the “activity (%) at 10 μM” value came to 105% and the EC50 came to 22 nM.
Turning to `O=C1c2cc(Cc3ccc(Cl)nc3)c3ccccc3c2OCN1[C@H]1CCCC[C@@H]1O` (relative stereo) [Example 56, 6-((6-chloropyridin-3-yl)methyl)-3-(trans-2-hydroxycyclohexyl)-2,3-dihydro-4H-naphtho[2,1-e][1,3]oxazin-4-one], the “activity (%) at 10 μM” value is recorded as 109% and the EC50 came to 16 nM.
For the molecule `Cc1c(Cc2ccc(Cl)nc2)cc2c(c1F)OCN([C@H]1COCC[C@@H]1O)C2=O` [Example 19, 1,5-anhydro-2-(6-((6-chloropyridin-3-yl)methyl)-8-fluoro-7-methyl-4-oxo-2H-1,3-benzoxazin-3(4H)-yl)-2,4-dideoxy-L-threo-pentitol], the “activity (%) at 10 μM” value is listed as 105% and the EC50 was 45 nM.
